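Test compounds were applied to cells in 96-well plates for 48 hours at 5 doses. Here, GI50 denotes the concentration required for 50% inhibition of growth. Definition used: TGI = concentration required for complete inhibition of growth.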

Some test systems named below: SN12C renal; HCT-15 colon; SK-MEL-5 melanoma; EKVX NSCLC; HOP-92 NSCLC; OVCAR-8 ovarian; NCI-H226 lung; SK-MEL-2 melanoma.
Holding throughout (experiment): growth of human tumour cells (NCI), 48 h

With `Cn1nc(-c2ccccc2)c(C(=O)/C=C/c2ccc(Cl)cc2)c(N2CCCC2)c1=O`, the TGI in the test on SN12C renal is 54 µM; in the test on HCT-15 colon, more than 100 µM; in the test on SK-MEL-5 melanoma, 18.6 µM; in the test with EKVX NSCLC, 32.4 µM; with HOP-92 NSCLC, 6.94 µM; in the test on OVCAR-8 ovarian it was 29.7 µM.

On to `COc1ccc2c(c1)c1c3n2CCNN=C3CCC1`, for which the TGI in the test on NCI-H226 lung, with SN12C renal, with HCT-15 colon, in the test with SK-MEL-5 melanoma, in the test with EKVX NSCLC and in the test with HOP-92 NSCLC was more than 100 µM each time. For the same molecule, the TGI with SK-MEL-2 melanoma and in the test with OVCAR-8 ovarian was more than 100 µM each time.

Regarding `C/C(=N\NS(=O)(=O)c1ccc([N+](=O)[O-])cc1)c1ccc[n+]([O-])n1`, the TGI was determined as 3.91 µM with NCI-H226 lung; 12 µM in the test with SN12C renal; 24.9 µM with HCT-15 colon; 5.97 µM with SK-MEL-5 melanoma; 20.9 µM in the test on EKVX NSCLC; 8.3 µM in the test on HOP-92 NSCLC. The TGI is 3.84 µM in the test on SK-MEL-2 melanoma and 6.61 µM in the test with OVCAR-8 ovarian.

For the molecule `[CH3][Sn]1([CH3])[O]CC(COc2cc(Cl)c(Cl)cc2Cl)[O]1` (stereo unspecified), the GI50 is 30.7 µM in the test on NCI-H226 lung; 89.1 µM with SN12C renal; more than 100 µM with HCT-15 colon; 49.8 µM in the test on SK-MEL-5 melanoma; 55.9 µM with EKVX NSCLC; 62 µM in the test with SK-MEL-2 melanoma. Also, the GI50 with OVCAR-8 ovarian was more than 100 µM. Moreover, the TGI in the test with NCI-H226 lung, in the test with SN12C renal, in the test with HCT-15 colon, with SK-MEL-5 melanoma, in the test on EKVX NSCLC and in the test with SK-MEL-2 melanoma was more than 100 µM each time. The same molecule gave a TGI with OVCAR-8 ovarian of more than 100 µM.

On to `CCCCNC1=C(C(=O)OCC)/C(=N/NC(=O)c2ccccc2O)CO1`, for which the TGI in the test on NCI-H226 lung, in the test with SN12C renal, in the test on SK-MEL-5 melanoma, with EKVX NSCLC, with SK-MEL-2 melanoma and with OVCAR-8 ovarian was more than 100 µM in each case.

With `COc1ccc(C)cc1C1CCC(=O)O1` (stereo unspecified), the TGI in the test with NCI-H226 lung, in the test on SN12C renal, in the test with HCT-15 colon, in the test with SK-MEL-5 melanoma, in the test on EKVX NSCLC and in the test with SK-MEL-2 melanoma was more than 100 µM throughout. Further, the TGI in the test with OVCAR-8 ovarian is more than 100 µM.

On to `CC(C)(C)Sc1nnc(SC(C)(C)C)c2c(=O)[nH]nc(SC(C)(C)C)c12`, for which the TGI in the test on NCI-H226 lung was 28.5 µM; in the test with SN12C renal, 21.9 µM; in the test with HCT-15 colon, 16.4 µM; in the test on SK-MEL-5 melanoma it was 17.2 µM; in the test on EKVX NSCLC, 24.6 µM; in the test with HOP-92 NSCLC it was 14.1 µM. Also, in the test on OVCAR-8 ovarian, the TGI is 22.1 µM.

On to `O=C1C=Cc2ncccc2C1=O`, for which the TGI in the test on NCI-H226 lung is more than 58.7 µM; in the test on SN12C renal, 48.9 µM; with HCT-15 colon, 33.5 µM; in the test with SK-MEL-5 melanoma, 28.2 µM; with EKVX NSCLC, 47.5 µM; in the test with HOP-92 NSCLC, 42.5 µM. For the same molecule, the figures for the TGI with SK-MEL-2 melanoma and in the test with OVCAR-8 ovarian were 39.2 µM and 30.2 µM, respectively.

For the molecule `C#CCOCn1cnc2ncnc(N)c21`, the TGI with NCI-H226 lung, in the test on SN12C renal, with SK-MEL-5 melanoma, in the test on EKVX NSCLC, in the test with HOP-92 NSCLC and with SK-MEL-2 melanoma was more than 100 µM throughout. Further, in the test on OVCAR-8 ovarian, the TGI is more than 100 µM.

With `CC(=O)c1c2c(cc3c1CC1(C3)Cc3cc4c(c(C(=O)O)c3C1)CCC4)CCC2` (stereo unspecified), the TGI in the test on SN12C renal is more than 100 µM; with SK-MEL-5 melanoma, more than 100 µM; with HOP-92 NSCLC it was 81.2 µM; in the test with OVCAR-8 ovarian, more than 100 µM.

For `COc1cc(C(C#N)NNc2nc(C)cc(=O)[nH]2)cc(OC)c1OC` (stereo unspecified), the TGI with NCI-H226 lung, with SN12C renal, in the test on HCT-15 colon, in the test with SK-MEL-5 melanoma, with HOP-92 NSCLC and with SK-MEL-2 melanoma was more than 100 µM in each case. Also, the TGI with OVCAR-8 ovarian was more than 100 µM.

Turning to `O=S1(=O)c2ccccc2N=C(c2ccccc2Cl)CC1c1ccc(F)cc1` (stereo unspecified), the TGI with SN12C renal was determined as 29.1 µM; in the test with HCT-15 colon, 35.6 µM; with SK-MEL-5 melanoma, 31.4 µM; in the test on EKVX NSCLC, 36.2 µM; in the test on HOP-92 NSCLC it was 34.6 µM; in the test on SK-MEL-2 melanoma, 35.9 µM. In addition, the TGI with OVCAR-8 ovarian was found to be 48.3 µM.

For the molecule `CC(C)N1C(C)[C@@H](c2ccccc2)O[P@]1(=O)CC1=CCCCC1` (stereo partly specified), the TGI is more than 100 µM in the test with NCI-H226 lung; more than 100 µM in the test on SN12C renal; more than 100 µM in the test on HCT-15 colon; more than 100 µM in the test with SK-MEL-5 melanoma; more than 100 µM in the test on EKVX NSCLC; 99.6 µM with HOP-92 NSCLC. For the same molecule, the TGI in the test with SK-MEL-2 melanoma and with OVCAR-8 ovarian was more than 100 µM throughout.

On to `Cc1ccc2nc(NC(=O)C(=O)CC(=O)c3cccc4ccccc34)sc2c1`, for which the TGI in the test on NCI-H226 lung is more than 100 µM; in the test on SN12C renal, more than 100 µM; in the test on HCT-15 colon, more than 100 µM; in the test with SK-MEL-5 melanoma it was 55.4 µM; in the test on EKVX NSCLC, more than 100 µM; in the test on HOP-92 NSCLC, 69.9 µM. Further, the TGI is more than 100 µM in the test with SK-MEL-2 melanoma and 56.7 µM in the test on OVCAR-8 ovarian.

For the molecule `N#CC(C(=O)CCCC(=O)Nc1ccc(Cl)cc1Cl)c1ccc(Cl)cc1` (stereo unspecified), the TGI in the test with NCI-H226 lung, in the test on SN12C renal, with HCT-15 colon, with HOP-92 NSCLC, in the test with SK-MEL-2 melanoma and in the test with OVCAR-8 ovarian was more than 100 µM each time.

On to `CC(C)[Si](OCC1CC(C#N)OC(C)(C)O1)(C(C)C)C(C)C` (stereo unspecified), for which the TGI in the test on NCI-H226 lung was 35 µM; in the test with SN12C renal, more than 100 µM; with HCT-15 colon, 79 µM; with SK-MEL-5 melanoma, 33 µM; in the test with EKVX NSCLC, 66 µM; with HOP-92 NSCLC it was 57.2 µM. The figures for the TGI in the test on SK-MEL-2 melanoma and with OVCAR-8 ovarian were 30.6 µM and 48 µM, respectively.

With `Cc1noc(/N=C2\C=C(Nc3onc(C)c3C)C(=O)c3ccccc32)c1C`, the TGI with NCI-H226 lung, in the test on SN12C renal, in the test with HCT-15 colon, with SK-MEL-5 melanoma, in the test with EKVX NSCLC and in the test on HOP-92 NSCLC was more than 100 µM each time. In addition, the TGI in the test on SK-MEL-2 melanoma and in the test on OVCAR-8 ovarian was more than 100 µM in each case.

`O=CCCCC(Sc1ccccc1)Sc1ccccc1`: the TGI with SN12C renal is 56.7 µM; in the test on HCT-15 colon, 33.2 µM; in the test with SK-MEL-5 melanoma, 30.8 µM; in the test on EKVX NSCLC, more than 100 µM; in the test on SK-MEL-2 melanoma, 42.7 µM; in the test on OVCAR-8 ovarian, 35.8 µM.

Turning to `COc1ccc(NC(=O)C2C(=O)N(c3ccc(OC)cc3)C(=O)/C2=N\NC(N)=O)cc1` (stereo unspecified), the TGI in the test with NCI-H226 lung was 51.7 µM; in the test on SN12C renal, more than 100 µM; with HCT-15 colon it was more than 100 µM; with SK-MEL-5 melanoma it was 37.7 µM; with EKVX NSCLC, more than 100 µM; in the test with HOP-92 NSCLC, 84.9 µM. The TGI is more than 100 µM in the test on SK-MEL-2 melanoma and 34.6 µM with OVCAR-8 ovarian.

As for `CC(=O)NC(CCCN(Cc1ccccc1)C(=O)N(C)N=O)C(=O)NCc1ccccc1` (stereo unspecified), the TGI in the test with NCI-H226 lung, in the test on SN12C renal, in the test on HCT-15 colon, in the test with SK-MEL-5 melanoma, in the test on EKVX NSCLC and in the test with HOP-92 NSCLC was more than 100 µM in each case. Also, the TGI in the test on SK-MEL-2 melanoma and in the test on OVCAR-8 ovarian was more than 100 µM in each case.

In the case of `CCOC(=O)CC(NC(=O)c1ccc(N=NN(C)C)cc1)C(=O)OCC` (stereo unspecified), the TGI with NCI-H226 lung, with SN12C renal, with HCT-15 colon, with SK-MEL-5 melanoma, in the test with EKVX NSCLC and in the test on SK-MEL-2 melanoma was more than 100 µM throughout. In the test on OVCAR-8 ovarian, this molecule gave a TGI of more than 100 µM.

Take `c1ccc(-c2nnc3nn4c(-c5ccccc5)cnnc4c3c2-c2ccccc2)cc1`: the TGI in the test on NCI-H226 lung is more than 100 µM; with SN12C renal it was more than 100 µM; in the test on HCT-15 colon, more than 100 µM; with SK-MEL-5 melanoma, more than 100 µM; in the test with EKVX NSCLC it was 70.9 µM; with HOP-92 NSCLC it was more than 100 µM. The TGI in the test with SK-MEL-2 melanoma and in the test on OVCAR-8 ovarian was more than 100 µM each time.

Turning to `O=C(/C=C/C1C(=O)NC(=O)NC1=O)CC(=O)C(=O)Nc1cc(Cl)c(Cl)cc1Cl`, the TGI in the test on NCI-H226 lung, in the test with SN12C renal, in the test with HCT-15 colon, in the test with SK-MEL-5 melanoma, with EKVX NSCLC and in the test on SK-MEL-2 melanoma was more than 100 µM each time. In addition, in the test on OVCAR-8 ovarian, the TGI was more than 100 µM.

As to `CCc1cc(Cc2ccc(C)c(NC(=O)C(=O)C3C(=O)NC(=O)NC3=O)c2CC)cc(C)c1NC(=O)C(=O)C1C(=O)NC(=O)NC1=O`, the TGI with HCT-15 colon, in the test with SK-MEL-5 melanoma, in the test on EKVX NSCLC, in the test on SK-MEL-2 melanoma and in the test with OVCAR-8 ovarian was more than 100 µM each time.

These data come from PubChem BioAssay (NCI).
